# Assay results published in patent US10765696B2, “Compositions of and methods of treatment with zwitterionic polysaccharide” (City of Hope, priority 2015, dated 2020).
# Experiments:
# [1] = test system: HSV-1 strain 17+; assay: HSV encephalitis (HSE) survival model, corneal scarification; assay type: in vivo, mouse
# Procedure: 129S6 Wild Type (WT), 129 FoxP3-GFP and IL-10 knock-out (KO) mice were bred. Male and female mice aged 6-10 weeks were infected with HSV-1 strain 17+ (HSV).
# Prophylactic administration: six doses of 50 μg of PSA in sterile PBS was given as indicated-orally (PO), or intra-peritoneally (IP) over 3 weeks prior to HSV infection. Additionally, six doses of PSA were given IP on 9 days before HSV infection, 6 days before HSV infection, 3 days before HSV infection, day 0 of HSV infection (i.e., on the day of infection), 2 days post-infection, and 4 days post-infection. Mice received either PBS or the anti-viral drug acyclovir (ACV) from day 4 to 10 post-infection at 50 mg/kg. Therapeutic administration: PSA was administered on days 1, 3 and 6 post HSV infection by PO, IP or intravenous injection (IV) along with ACV beginning day 4-10 post-infection (pi).
# The post-infection therapeutic regimen included PSA administered day 1, day 3, day 6 post-infection, with ACV administered from day 4 post-infection. At day 4 post-HSV infection, 1.25 mg of ACV was given per mouse by IP injections daily for 7 days. […] 129 WT or Rag mice were given PSA as indicated in FIG. 3A prior to the infection. ACV was given starting at day 4 post-infection (FIG. 3B).
# [2] = test system: B cells; assay: Splenic B cell phenotype in treated HSV infected mice; assay type: in vivo, mouse; settings: six oral doses of PSA, ACV from day 4 pi, spleen day 6 pi
# [3] = test system: T and B cells; assay: Immune cell analysis in uninfected WT mice during/after oral PSA treatment; assay type: in vivo, mouse
# Description: PSA increases IL-10 secreting T and B cells, as depicted in FIGS. 14A-14B.
# Line plots showing CD39, CD73 and ICOS surface expression on CD4 and CD8 T cells isolated from mesenteric LN (MLN) of uninfected WT mice at indicated times during oral PSA treatment are depicted in FIGS. 16A-16B. FIG. 16A depicts CD4 T cells isolated from MLN of uninfected WT mice at indicated times during oral PSA treatment. FIG. 16B depicts CD8 T cells isolated from MLN of uninfected WT mice at indicated times during oral PSA treatment.
# [4] = test system: DCs, PMNs, CD45+ intra-epithelial lymphocytes; assay: Binding of fluorescent PSA to immune cells after oral gavage; assay type: in vivo, mouse; settings: ileum of 129 WT or Rag mice
# [5] = test system: monocytes; assay: Monocyte degranulation (CD107a/b), blood and spleen of treated HSV infected mice; settings: monocytes from blood and spleen, day 6 post-infection
# [6] = test system: HSV 17+ strain; assay: Flow cytometry of infiltrating leukocytes in brainstem (CNS inflammation) at day 6 pi
# [7] = test system: T cells; assay: Flow cytometry of T cells (phenotype, tetramer, intracellular cytokines) from treated HSV infected mice
molecule,measurement,setting,value
Bacteroides fragilis (B. fragilis) capsular polysaccharide A (PSA),"survival of PSA treated B cell knockout mice or 129 Rag recipients of CD4 T cells, CD8 T cells or B cells","[1]; HSV 17+ strain, ACV from day 4 pi",B cells and T cells are essential for PSA mediated protection
same,protection against HSV infection,"[1]; PSA IP therapeutically day 1, day 3, day 6 with ACV from day 4 post-infection",also did not protect against HSV infection
same,development of fatal HSE,"[1]; mice pretreated with purified PSA prior to the HSV-1 infection, control PBS",prevented the development of fatal HSE
same,protection against HSV infection,"[1]; six doses of 50 μg PSA prior to and during infection (or day -8 to +4 regimen, or day 1, 3, 6 pi), ACV 1.25 mg IP daily for 7 days from day 4 pi",did not protect against HSV infection
same,splenic B cell phenotype (CD138),[2],the majority of B cells express a highly activated secretory plasmablast phenotype
same,IL-10 secreting T and B cells,[3]; MLN and spleen of uninfected WT mice after 6 doses of oral PSA,increases
same,"accumulation of regulatory T cells (CD39, CD73, ICOS expression)",[3]; mesenteric lymph nodes of uninfected WT mice during oral PSA treatment,increases accumulation
same,IL-10 secretion from PSA stimulated CD45+ IEL,[4],induce IL-10 secretion by CD45+ IEL T cells in wild type but not Rag mice
same,degranulation of monocytes following stimulation with HSV antigen,[5],limited degranulation
same,spontaneous degranulation of monocytes,[5],reduced spontaneous degranulation
same,"CNS inflammation (% CD45high infiltrates, Ly6Chigh CD11b+ inflammatory monocytes in brainstem)","[6]; 129 Rag mice, ACV from day 4 pi, brainstem day 6 pi",does not reduce CNS inflammation
same,CNS inflammation (infiltrating leukocytes in brainstem),"[6]; 129 WT mice, ACV from day 4 pi, brainstem day 6 pi",reducing CNS inflammation
same,CD8+ in brainstem that were CD103+,"[6]; 129 WT mice, brainstem",majority
same,CD8+ virus specific based on tetramer staining,"[6]; 129 WT mice, brainstem",Greater than 70%
same,CD4+ ICOS+ T cells in the spleen,"[7]; 129 WT mice, spleen",56%
same,CD4+ ICOS+ T cells that produced IL-10,[7]; PMA+ ionomycin stimulation,Approximately 10%
same,"phenotype of FoxP3 Tregs (CD25, CD103)","[7]; cervical lymph nodes, HSV infected WT mice, ACV from d4, day 6 pi",functional phenotype
same,CD62Llow CD4 T cells that were ICOS+,"[7]; oral PSA, blood and spleen, day 6 post-infection",56%
same,virus specific spleen CD8 T cells that were CD103+,"[7]; six oral doses of PSA, ACV from day 4, spleen day 6 post-infection",> 70%
same,CD4s that secrete IL-10 in response to stimulation,"[7]; six oral doses of PSA, ACV from day 4, spleen day 6 post-infection, PMA+ionomycin",about 11%
same,frequency of Tregs,[7]; spleen or BS,No change
"Nc1nc2c(ncn2COCCO)c(=O)[nH]1 [ACV, acyclovir, reference compound]",prevention of lethal HSV encephalitis (HSE),"[1]; 129 WT mice, ACV given at day 4 post infection",Cannot Prevent Lethal HSV Encephalitis (HSE)
